Results as given in US10392391B2 (Vertex Pharmaceuticals Incorporated, priority 2012, dated 2019).

What follows are compounds tested against ATR kinase (full-length ATR) (Homo sapiens (Human), UniProt Q13535) (assay: ATR inhibition assay (radioactive-phosphate incorporation)). Settings: not given.
Chain of ATR kinase (full-length ATR) (Q13535 whole entry): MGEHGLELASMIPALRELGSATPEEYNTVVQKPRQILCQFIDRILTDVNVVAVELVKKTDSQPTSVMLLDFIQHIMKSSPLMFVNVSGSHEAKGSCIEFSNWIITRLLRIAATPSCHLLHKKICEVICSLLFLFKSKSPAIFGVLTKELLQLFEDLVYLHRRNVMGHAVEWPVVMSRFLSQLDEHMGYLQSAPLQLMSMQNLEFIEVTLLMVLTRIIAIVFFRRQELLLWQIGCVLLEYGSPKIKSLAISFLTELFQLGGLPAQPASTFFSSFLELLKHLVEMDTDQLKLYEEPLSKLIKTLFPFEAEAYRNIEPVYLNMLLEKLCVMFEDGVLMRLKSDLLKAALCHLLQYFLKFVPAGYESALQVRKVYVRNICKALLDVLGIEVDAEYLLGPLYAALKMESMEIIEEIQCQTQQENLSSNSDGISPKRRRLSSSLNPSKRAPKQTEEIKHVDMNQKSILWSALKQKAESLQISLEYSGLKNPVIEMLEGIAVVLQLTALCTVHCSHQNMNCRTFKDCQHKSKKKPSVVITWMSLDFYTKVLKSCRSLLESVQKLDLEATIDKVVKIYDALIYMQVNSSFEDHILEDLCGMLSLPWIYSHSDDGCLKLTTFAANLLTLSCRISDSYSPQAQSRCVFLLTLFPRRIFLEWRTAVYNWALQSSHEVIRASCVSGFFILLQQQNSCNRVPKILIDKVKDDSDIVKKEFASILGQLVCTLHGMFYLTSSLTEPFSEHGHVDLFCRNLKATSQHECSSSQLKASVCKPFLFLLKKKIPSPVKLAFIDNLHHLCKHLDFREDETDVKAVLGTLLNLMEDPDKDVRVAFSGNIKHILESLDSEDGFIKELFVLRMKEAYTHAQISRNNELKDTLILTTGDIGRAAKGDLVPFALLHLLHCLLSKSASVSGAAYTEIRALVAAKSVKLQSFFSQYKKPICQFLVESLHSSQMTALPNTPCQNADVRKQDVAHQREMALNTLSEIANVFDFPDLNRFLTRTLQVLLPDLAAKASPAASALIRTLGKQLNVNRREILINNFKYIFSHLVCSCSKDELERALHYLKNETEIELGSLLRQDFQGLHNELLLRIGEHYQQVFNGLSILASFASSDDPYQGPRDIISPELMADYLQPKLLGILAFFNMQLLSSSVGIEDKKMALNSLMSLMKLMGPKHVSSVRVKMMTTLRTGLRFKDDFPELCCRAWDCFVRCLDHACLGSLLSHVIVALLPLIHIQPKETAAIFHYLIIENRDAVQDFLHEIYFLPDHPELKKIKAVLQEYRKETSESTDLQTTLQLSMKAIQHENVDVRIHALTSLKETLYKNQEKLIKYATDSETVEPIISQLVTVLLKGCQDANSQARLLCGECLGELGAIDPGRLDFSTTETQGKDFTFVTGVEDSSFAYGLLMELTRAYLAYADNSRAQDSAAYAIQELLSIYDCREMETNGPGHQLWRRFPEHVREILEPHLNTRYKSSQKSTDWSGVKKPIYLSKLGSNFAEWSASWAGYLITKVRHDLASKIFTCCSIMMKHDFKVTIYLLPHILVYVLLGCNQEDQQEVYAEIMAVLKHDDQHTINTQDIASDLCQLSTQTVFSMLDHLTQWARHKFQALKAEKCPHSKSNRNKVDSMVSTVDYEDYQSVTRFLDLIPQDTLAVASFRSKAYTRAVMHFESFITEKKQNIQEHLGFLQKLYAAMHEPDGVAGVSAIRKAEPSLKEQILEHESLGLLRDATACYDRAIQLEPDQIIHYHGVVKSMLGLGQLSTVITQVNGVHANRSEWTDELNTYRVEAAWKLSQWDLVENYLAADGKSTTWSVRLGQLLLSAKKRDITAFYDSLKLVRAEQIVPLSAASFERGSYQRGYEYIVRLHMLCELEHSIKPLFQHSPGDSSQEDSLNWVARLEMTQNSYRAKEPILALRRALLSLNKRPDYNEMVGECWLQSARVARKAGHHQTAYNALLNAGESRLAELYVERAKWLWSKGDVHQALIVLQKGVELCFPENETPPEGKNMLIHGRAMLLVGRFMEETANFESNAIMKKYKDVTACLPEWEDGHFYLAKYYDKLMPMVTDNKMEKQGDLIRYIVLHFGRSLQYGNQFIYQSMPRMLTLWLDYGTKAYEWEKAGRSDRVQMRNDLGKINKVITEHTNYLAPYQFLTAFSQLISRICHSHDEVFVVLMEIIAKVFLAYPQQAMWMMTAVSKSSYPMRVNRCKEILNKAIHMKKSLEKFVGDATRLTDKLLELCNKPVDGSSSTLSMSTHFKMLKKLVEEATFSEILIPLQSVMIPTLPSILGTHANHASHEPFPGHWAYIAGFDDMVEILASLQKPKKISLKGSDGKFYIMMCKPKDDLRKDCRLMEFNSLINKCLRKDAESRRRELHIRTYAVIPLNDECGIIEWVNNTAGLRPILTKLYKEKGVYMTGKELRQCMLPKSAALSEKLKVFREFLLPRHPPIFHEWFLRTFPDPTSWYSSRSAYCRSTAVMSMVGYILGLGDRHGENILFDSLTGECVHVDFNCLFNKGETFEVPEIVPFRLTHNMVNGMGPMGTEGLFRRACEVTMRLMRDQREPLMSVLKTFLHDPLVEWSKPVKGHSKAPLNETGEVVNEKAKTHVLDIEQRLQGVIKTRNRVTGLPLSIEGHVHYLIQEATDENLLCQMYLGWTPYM
Type: biochemical
How it was run: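 Ki(app) was fitted by non-linear regression to background-corrected initial rates. Full-length ATR (5 nM) phosphorylated 800 μM peptide using 10 μM [γ-33P]ATP at 25° C in Tris/HCl pH 7.5 buffer with MgCl2, DTT and 7% DMSO. After 10-minute compound pre-incubation and 24-hour reaction, phosphocellulose filters were scintillation counted.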
For `CN1CC2CN(C(=O)C3CCN(c4c(F)cncc4NC(=O)c4c(N)nn5cc(F)cnc45)CC3)CC2C1` (stereo not shown) [I-G-18, 2-amino-6-fluoro-N-(5-fluoro-4-(4-(5-methyloctahydropyrrolo[3,4-c]pyrrole-2-carbonyl)piperidin-1-yl)pyridin-3-yl)pyrazolo[1,5-a]pyrimidine-3-carboxamide], the Ki was 10 to 1000 nM. `CNCCc1cnn(-c2ccncc2NC(=O)c2c(N)nn3cc(F)cnc23)c1` [I-N-8, 2-amino-6-fluoro-N-(4-(4-(2-(methylamino)ethyl)-1H-pyrazol-1-yl)pyridin-3-yl)pyrazolo[1,5-a]pyrimidine-3-carboxamide] was tested, and the Ki was 1000 to 5000 nM. `CC(C)(C#N)c1cnc2c(C(=O)Nc3cncc(F)c3N3CCN(C4COC4)CC3)c(N)nn2c1` [I-N-144] showed a Ki of 1000 to 5000 nM.

Same assay, conditions: Ki(app), 5 nM full-length ATR, 10 μM ATP, 25° C.
With `CN1CCN(C(=O)C2(C#N)CCN(c3c(F)cncc3NC(=O)c3c(N)nn4cc(F)cnc34)CC2)CC1` [I-G-25, 2-amino-N-(4-(4-cyano-4-(4-methylpiperazine-1-carbonyl)piperidin-1-yl)-5-fluoropyridin-3-yl)-6-fluoropyrazolo[1,5-a]pyrimidine-3-carboxamide] the Ki was 10 to 1000 nM. `N#CC1(c2cnc3c(C(=O)Nc4cncc(F)c4N4CCN(C5COC5)CC4)c(N)nn3c2)CC1` [I-N-180, 2-amino-6-(1-cyanocyclopropyl)-N-(5-fluoro-4-(4-(oxetan-3-yl)piperazin-1-yl)pyridin-3-yl)pyrazolo[1,5-a]pyrimidine-3-carboxamide] showed a Ki of 10 to 1000 nM. With `N#CCc1cnc2c(C(=O)Nc3cnccc3OC3COC3)c(N)nn2c1` [I-O-38, 2-amino-6-(cyanomethyl)-N-(4-(oxetan-3-yloxy)pyridin-3-yl)pyrazolo[1,5-a]pyrimidine-3-carboxamide] the Ki was < 10 nM. With `Nc1nn2cc(Cl)cnc2c1C(=O)Nc1cnccc1O[C@H]1CCOC1` [I-O-58, (S)-2-amino-6-chloro-N-(4-((tetrahydrofuran-3-yl)oxy)pyridin-3-yl)pyrazolo[1,5-a]pyrimidine-3-carboxamide] the Ki was 10 to 1000 nM. `Nc1nn2cc(F)cnc2c1C(=O)Nc1cnccc1N1CCC(C(=O)N2CC(F)(F)C2)CC1` [I-G-80, 2-amino-N-(4-(4-(3,3-difluoroazetidine-1-carbonyl)piperidin-1-yl)pyridin-3-yl)-6-fluoropyrazolo[1,5-a]pyrimidine-3-carboxamide] showed a Ki of 10 to 1000 nM. In the case of `Nc1nn2cc(F)cnc2c1C(=O)Nc1cnccc1N1CCN([C@H]2CCOC2)CC1` [I-N-12, (S)-2-amino-6-fluoro-N-(4-(4-(tetrahydrofuran-3-yl)piperazin-1-yl)pyridin-3-yl)pyrazolo[1,5-a]pyrimidine-3-carboxamide], the Ki is reported as 10 to 1000 nM. Compound `Nc1nn2cc(Cl)cnc2c1C(=O)Nc1cnccc1OC1CN2CCC1CC2` (stereo not shown) [I-O-62, 2-amino-6-chloro-N-(4-(quinuclidin-3-yloxy)pyridin-3-yl)pyrazolo[1,5-a]pyrimidine-3-carboxamide] has a Ki of 10 to 1000 nM. Compound `Nc1nn2cc(F)cnc2c1C(=O)Nc1cncc(F)c1N1CCC(C(=O)N2CC(F)(F)C2)CC1` [I-G-73, 2-amino-N-(4-(4-(3,3-difluoroazetidine-1-carbonyl)piperidin-1-yl)-5-fluoropyridin-3-yl)-6-fluoropyrazolo[1,5-a]pyrimidine-3-carboxamide] has a Ki of 10 to 1000 nM. For `CN1CCN(C(=O)C2CCN(c3c(F)cncc3NC(=O)c3c(N)nn4cc(F)cnc34)CC2)CC1(C)C` [I-G-15, 2-amino-6-fluoro-N-(5-fluoro-4-(4-(3,3,4-trimethylpiperazine-1-carbonyl)piperidin-1-yl)pyridin-3-yl)pyrazolo[1,5-a]pyrimidine-3-carboxamide], the Ki was 10 to 1000 nM. `Nc1nn2cc(F)cnc2c1C(=O)Nc1cnccc1N1CCC2(CC1)COC2` [I-N-226, N-(4-(2-oxa-7-azaspiro[3.5]nonan-7-yl)pyridin-3-yl)-2-amino-6-fluoropyrazolo[1,5-a]pyrimidine-3-carboxamide] showed a Ki of 10 to 1000 nM. In the case of `N#CCc1cnc2c(C(=O)Nc3cnccc3OC3CCCCC3)c(N)nn2c1` [I-O-39, 2-amino-6-(cyanomethyl)-N-(4-(cyclohexyloxy)pyridin-3-yl)pyrazolo[1,5-a]pyrimidine-3-carboxamide], the Ki is reported as < 10 nM. Compound `Nc1nn2cc(F)cnc2c1C(=O)Nc1cnccc1-c1ccc(C(=O)N2CCNCC2)cc1` [I-C-44, 2-amino-6-fluoro-N-(4-(4-(piperazine-1-carbonyl)phenyl)pyridin-3-yl)pyrazolo[1,5-a]pyrimidine-3-carboxamide] has a Ki of 10 to 1000 nM. In the case of `N#CCc1cnc2c(C(=O)Nc3cnccc3OC3CCCNC3)c(N)nn2c1` (racemic) [I-O-2, (R,S)-2-amino-6-(cyanomethyl)-N-(4-(piperidin-3-yloxy)pyridin-3-yl)pyrazolo[1,5-a]pyrimidine-3-carboxamide], the Ki is reported as < 10 nM. For `CS(=O)(=O)CC1CCN(c2ccncc2NC(=O)c2c(N)nn3cc(F)cnc23)CC1` [I-N-215, 2-amino-6-fluoro-N-(4-(4-((methylsulfonyl)methyl)piperidin-1-yl)pyridin-3-yl)pyrazolo[1,5-a]pyrimidine-3-carboxamide], the Ki was 10 to 1000 nM. Compound `Nc1nn2cc(Cl)cnc2c1C(=O)Nc1cnccc1N1CCC(N)CC1` [I-N-86, 2-amino-N-(4-(4-aminopiperidin-1-yl)pyridin-3-yl)-6-chloropyrazolo[1,5-a]pyrimidine-3-carboxamide] has a Ki of 10 to 1000 nM. `Cc1ncn(C)c1-c1ccncc1NC(=O)c1c(N)nn2cc(F)cnc12` [I-C-78, 2-amino-N-(4-(1,4-dimethyl-1H-imidazol-5-yl)pyridin-3-yl)-6-fluoropyrazolo[1,5-a]pyrimidine-3-carboxamide] was tested, and the Ki was 10 to 1000 nM. Work on `CNc1cc(OC)c(NC(=O)c2c(N)nn3cc(F)cnc23)cn1` [I-O-90, 2-amino-6-fluoro-N-(4-methoxy-6-(methylamino)pyridin-3-yl)pyrazolo[1,5-a]pyrimidine-3-carboxamide] yielded a Ki of 10 to 1000 nM. In the case of `CC(=O)N1CC2(CCN(c3ccncc3NC(=O)c3c(N)nn4cc(F)cnc34)CC2)C1` [I-N-251, N-(4-(2-acetyl-2,7-diazaspiro[3.5]nonan-7-yl)pyridin-3-yl)-2-amino-6-fluoropyrazolo[1,5-a]pyrimidine-3-carboxamide], the Ki is reported as 10 to 1000 nM. For `Nc1nn2cc(F)cnc2c1C(=O)Nc1cncc(F)c1N1CCC(C(=O)N2CC(N3CCCC3)C2)CC1` [I-G-43, 2-amino-6-fluoro-N-(5-fluoro-4-(4-(3-(pyrrolidin-1-yl)azetidine-1-carbonyl)piperidin-1-yl)pyridin-3-yl)pyrazolo[1,5-a]pyrimidine-3-carboxamide], the Ki was 10 to 1000 nM. Compound `Cc1nc(O[C@@H]2CCN(C)C2)ccc1-c1ccncc1NC(=O)c1c(N)nn2cc(F)cnc12` [I-C-41, (R)-2-amino-6-fluoro-N-(2-methyl-6-((1-methylpyrrolidin-3-yl)oxy)-[3,4′-bipyridin]-3′-yl)pyrazolo[1,5-a]pyrimidine-3-carboxamide] has a Ki of 10 to 1000 nM. `Nc1nn2cc(F)cnc2c1C(=O)Nc1cncc(F)c1N1CCCC1` [I-N-246, 2-amino-6-fluoro-N-(5-fluoro-4-(pyrrolidin-1-yl)pyridin-3-yl)pyrazolo[1,5-a]pyrimidine-3-carboxamide] gave a Ki of 10 to 1000 nM. For `Nc1nn2cc(F)cnc2c1C(=O)Nc1cncc(F)c1N1CCN(C(=O)C2CNCCO2)CC1` (stereo not shown) [I-N-172, 2-amino-6-fluoro-N-(5-fluoro-4-(4-(morpholine-2-carbonyl)piperazin-1-yl)pyridin-3-yl)pyrazolo[1,5-a]pyrimidine-3-carboxamide], the Ki was 10 to 1000 nM.
